Measured values taken from article PMC10410440, “Preclinical PK investigation of a novel IDO1/TDO dual inhibitor—SHR9146 in mouse plasma and tissues by LC-MS/MS” (Frontiers in Oncology, 2023).
“And” between values parts separate entries of the source, which are not always exact repeats. Identical values can stand only once. Like-named read-outs stand apart in the source and are kept apart here.

Test: Tissue distribution of SHR9146 in mice after oral gavage of 40 mg/kg
Format: in vivo, ICR mice
Conditions: male, 40 mg/kg oral gavage; for concentration at 1 h / concentration at 3 h / concentration at 6 h: ICR, mouse, po
Method: ICR mice with body weight 16–26 g were supplied by Shanghai Lingchang Biotechnology Co., Ltd. (animal breeding license number SCXK (Shanghai) 2013-0018) and housed at Shanghai Institute of Materia Medica, Chinese Academy of Sciences [animal use license number SYXK (Shanghai) 2015-0027]. The mice used in this study were fasted overnight for 12 h but had free access to water. Food was supplied 4 h post-dose. All experiments in this study were conducted in accordance with the Guidelines for the Care and Use of Laboratory Animals of Shanghai Institute of Materia Medica, Chinese Academy of Sciences.
Another set of 30 mice were randomly assigned into five groups with equal numbers, males and females, for tissue distribution study with oral gavage at a single dose of 40 mg/kg at predetermined different time points: pre-dose and post dose at 1, 3, 6, and 24 h, respectively. The whole brain, heart, liver, spleen, lung, kidney, bladder, pancreas, testis, ovary, uterus, stomach, small intestine, adrenal gland, skin, skeletal muscle, thyroid gland, and abdominal fat tissues as well as the whole blood and plasma samples were harvested. Tissue samples were washed with 0.9% sodium chloride solution to remove the residual blood or contents, blotted on a filter paper, and stored at −70°C prior to the analysis.
Protein precipitation was selected for the pretreatment of both the plasma and the tissue homogenate prepared after thawing at room temperature, cut into pieces, and homogenized with a quintuple methanol–water mixture (1:1, v/v) for each tissue sample.
Briefly as follows, an aliquot of 25-μL plasma or tissue homogenate was spiked with 100 μL of internal standard solution (1 μg/mL for plasma, 0.2 μg/mL for tissue homogenate) and 300 μL of methanol added and vortex mixed for 60 s. The mixture was then centrifuged at 14,000 rpm at 4°C for 5.0 min, and the supernatant was diluted with methanol–water (4:1, v/v) in a ratio of 1:9 for the plasma or 1:1 for the tissue homogenate, and 5 μL of the resulting solution was injected for the LC-MS/MS analysis.
After oral administration of 40 mg/kg SHR9146, samples in different tissues at predetermined time points (pre-drug administration, post-drug administration at 1, 3, 6, and 24 h) were collected and prepared for the analysis. The drug concentrations of SHR9146 (μg/g or μg/mL) were determined for each mouse, and the mean and standard deviation were further obtained (Table S7).

[1] = 24 h, individual mice, 40 mg/kg

OCCn1cc(-c2ccc(N3CCC([C@H]4c5c(F)cccc5-c5cncn54)CC3)cc2)cn1 [SHR9146]
SHR9146 concentration in Pancreas (1 h, individual mice, 40 mg/kg): 15.265 µg/g and 8.681 µg/g
SHR9146 concentration in Plasma (1 h, individual mice, 40 mg/kg): 11.481 µg/mL and 5.761 µg/mL
SHR9146 concentration in Small intestine (1 h, individual mice, 40 mg/kg): 24.690 µg/g and 24.120 µg/g
SHR9146 concentration in Bladder (3 h, individual mice, 40 mg/kg): 0.390 µg/g and 6.162 µg/g and 6.598 µg/g
SHR9146 concentration in Brain (3 h, individual mice, 40 mg/kg): BLQ
SHR9146 concentration in Kidney (3 h, individual mice, 40 mg/kg): 0.314 µg/g and 6.873 µg/g and 7.165 µg/g
SHR9146 concentration in Liver (3 h, individual mice, 40 mg/kg): 1.367 µg/g and 13.792 µg/g and 13.853 µg/g
SHR9146 concentration in Lung (3 h, individual mice, 40 mg/kg): 0.798 µg/g and 7.286 µg/g and 7.382 µg/g
SHR9146 concentration in Pancreas (3 h, individual mice, 40 mg/kg): 0.231 µg/g and 7.160 µg/g and 7.228 µg/g
SHR9146 concentration in Small intestine (3 h, individual mice, 40 mg/kg): 0.411 µg/g and 11.992 µg/g and 8.326 µg/g
SHR9146 concentration in Brain (6 h, individual mice): BLQ
SHR9146 concentration in Abdominal fat (6 h, individual mice, 40 mg/kg): BLQ
SHR9146 concentration in Adrenal gland (6 h, individual mice, 40 mg/kg): BLQ and 0.313 μg/g
SHR9146 concentration in Bladder (6 h, individual mice, 40 mg/kg): BLQ and 0.199 μg/g
SHR9146 concentration in Heart (6 h, individual mice, 40 mg/kg): BLQ
SHR9146 concentration in Kidney (6 h, individual mice, 40 mg/kg): 0.159 µg/g and 0.129 µg/g and 0.344 µg/g
SHR9146 concentration in Liver (6 h, individual mice, 40 mg/kg): 0.702 µg/g and 0.351 µg/g and 0.845 µg/g
SHR9146 concentration in Lung (6 h, individual mice, 40 mg/kg): 0.510 µg/g and 0.701 µg/g
SHR9146 concentration in Pancreas (6 h, individual mice, 40 mg/kg): BLQ and 0.127 μg/g
SHR9146 concentration in Plasma (6 h, individual mice, 40 mg/kg): BLQ
SHR9146 concentration in Skeletal muscle (6 h, individual mice, 40 mg/kg): BLQ
SHR9146 concentration in Small intestine (6 h, individual mice, 40 mg/kg): BLQ and 0.152 μg/g
SHR9146 concentration in Spleen (6 h, individual mice, 40 mg/kg): BLQ
SHR9146 concentration in Whole blood (6 h, individual mice, 40 mg/kg): BLQ
SHR9146 concentration in thyroid gland (6 h, individual mice, 40 mg/kg): BLQ
SHR9146 concentration in Abdominal fat (24 h, individual mice): BLQ
SHR9146 concentration in Adrenal gland (24 h, individual mice): BLQ
SHR9146 concentration in Bladder (24 h, individual mice): BLQ
SHR9146 concentration in Brain (24 h, individual mice): BLQ
SHR9146 concentration in Heart (24 h, individual mice): BLQ
SHR9146 concentration in Pancreas (24 h, individual mice): BLQ
SHR9146 concentration in Plasma (24 h, individual mice): BLQ
SHR9146 concentration in Skeletal muscle (24 h, individual mice): BLQ
SHR9146 concentration in Small intestine (24 h, individual mice): BLQ
SHR9146 concentration in Spleen (24 h, individual mice): BLQ
SHR9146 concentration in Testis (24 h, individual mice): BLQ
SHR9146 concentration in Whole blood (24 h, individual mice): BLQ
SHR9146 concentration in thyroid gland (24 h, individual mice): BLQ
SHR9146 concentration in Kidney [1]: BLQ
SHR9146 concentration in Liver [1]: BLQ
SHR9146 concentration in Lung [1]: 0.064 µg/g and 0.105 µg/g
SHR9146 concentration in Skin [1]: BLQ
concentration at 1 h (abdominal fat, 40 mg/kg, 1 h, Mean (n=3), read-out: SHR9146 concentration in Abdominal fat): 7200 ng/g
concentration at 3 h (abdominal fat, 40 mg/kg, 3 h, Mean (n=3), read-out: SHR9146 concentration in Abdominal fat): 4070 ng/g
concentration at 6 h (abdominal fat, 40 mg/kg, 6 h, Mean (n=3), read-out: SHR9146 concentration in Abdominal fat): 75 ng/g
concentration at 1 h (adrenal gland, 40 mg/kg, 1 h, Mean (n=3), read-out: SHR9146 concentration in Adrenal gland): 23600 ng/g
concentration at 1 h (adrenal gland, 40 mg/kg, 1 h, individual mice, read-out: SHR9146 concentration in Adrenal gland): 24100 ng/g
concentration at 3 h (adrenal gland, 40 mg/kg, 3 h, Mean (n=3), read-out: SHR9146 concentration in Adrenal gland): 8450 ng/g
concentration at 6 h (adrenal gland, 40 mg/kg, 6 h, Mean (n=3), read-out: SHR9146 concentration in Adrenal gland): 163 ng/g
concentration at 6 h (adrenal gland, 40 mg/kg, 6 h, individual mice, read-out: SHR9146 concentration in Adrenal gland): 177 ng/g
concentration at 1 h (bladder, 40 mg/kg, 1 h, Mean (n=3), read-out: SHR9146 concentration in Bladder): 12400 ng/g
concentration at 1 h (bladder, 40 mg/kg, 1 h, individual mice, read-out: SHR9146 concentration in Bladder): 12500 ng/g
concentration at 3 h (bladder, 40 mg/kg, 3 h, Mean (n=3), read-out: SHR9146 concentration in Bladder): 4380 ng/g
concentration at 6 h (bladder, 40 mg/kg, 6 h, Mean (n=3), read-out: SHR9146 concentration in Bladder): 163 ng/g
concentration at 6 h (bladder, 40 mg/kg, 6 h, individual mice, read-out: SHR9146 concentration in Bladder): 291 ng/g
concentration at 1 h (brain, 40 mg/kg, 1 h, Mean (n=3), read-out: SHR9146 concentration in Brain): 1890 ng/g
concentration at 1 h (brain, 40 mg/kg, 1 h, individual mice, read-out: SHR9146 concentration in Brain): 2280 ng/g
concentration at 3 h (brain, 40 mg/kg, 3 h, Mean (n=3), read-out: SHR9146 concentration in Brain): 666 ng/g
concentration at 3 h (brain, 40 mg/kg, 3 h, individual mice, read-out: SHR9146 concentration in Brain): 1020 ng/g
concentration at 1 h (heart, 40 mg/kg, 1 h, Mean (n=3), read-out: SHR9146 concentration in Heart): 7320 ng/g
concentration at 1 h (heart, 40 mg/kg, 1 h, individual mice, read-out: SHR9146 concentration in Heart): 8420 ng/g
concentration at 3 h (heart, 40 mg/kg, 3 h, Mean (n=3), read-out: SHR9146 concentration in Heart): 2660 ng/g
concentration at 6 h (heart, 40 mg/kg, 6 h, Mean (n=3), read-out: SHR9146 concentration in Heart): 48 ng/g
concentration at 6 h (heart, 40 mg/kg, 6 h, individual mice, read-out: SHR9146 concentration in Heart): 61 ng/g
concentration at 1 h (kidney, 40 mg/kg, 1 h, Mean (n=3), read-out: SHR9146 concentration in Kidney): 11900 ng/g
concentration at 1 h (kidney, 40 mg/kg, 1 h, individual mice, read-out: SHR9146 concentration in Kidney): 12300 ng/g
concentration at 3 h (kidney, 40 mg/kg, 3 h, Mean (n=3), read-out: SHR9146 concentration in Kidney): 4780 ng/g
